The structures appear in SMILES notation.

For the test, the target named is T1, recombinant human Syk (GST-hSyk fusion protein) (Homo sapiens, UniProt P43405).
T1 construct: purchased Carna Biosciences 08-176
Description: Homogeneous Time-Resolved Fluorescence (HTRF) assay for the recombinant human Syk enzyme. It counts as biochemical. Particulars: IC50 class; 10-dose titration, 25 μM ATP; read-out: rhSYK Activity. The essentials: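 GST-hSyk (5 pM) preincubated 10 min with compound (0.1% DMSO) in 15 mM Tris-HCl pH 7.5, 2 mM DTT; reaction started with 250 nM biotinylated peptide, 5 mM Mg, 25 μM ATP, 45 min, room temperature. EDTA quench, Eu-anti-phosphotyrosine/SA-APC HTRF read after 30 min; IC50 from 10-dose titration (10 μM–0.508 nM), four-parameter fit.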
(In general: TR-FRET usually uses a lanthanide donor and a delayed reading to cut background.)
For `Cc1cc(Nc2nccc(C(F)(F)F)n2)cc(-c2cnn(CCCN)c2)c1` [Example 3.20, N-{3-[1-(3-aminopropyl)-1H-pyrazol-4-yl]-5-methylphenyl}-4-(trifluoromethyl)pyrimidin-2-amine], the IC50 was at most 100 nM.

With `Cc1cc(Nc2nccc(C(F)(F)F)n2)cc(-c2cnn(CC3CC3)c2)c1` [Example 3.21, N-{3-[1-(cyclopropylmethyl)-1H-pyrazol-4-yl]-5-methylphenyl}-4-(trifluoromethyl)pyrimidin-2-amine], the IC50 is at most 100 nM.

For the molecule `CC(=O)Cn1cc(-c2cc(C)cc(Nc3nccc(C(F)(F)F)n3)c2)cn1` [Example 3.22, 1-[4-(3-methyl-5-{[4-(trifluoromethyl)pyrimidin-2-yl]amino}phenyl)-1H-pyrazol-1-yl]propan-2-one], the IC50 is at most 100 nM.

Take `CCOC(Cn1cc(-c2cc(C)cc(Nc3nccc(C(F)(F)F)n3)c2)cn1)OCC` [Example 3.23, N-{3-[1-(2,2-diethoxyethyl)-1H-pyrazol-4-yl]-5-methylphenyl}-4-(trifluoromethyl)pyrimidin-2-amine]: the IC50 lay in the range of 100 to 1000 nM.

Take `Cc1cc(Nc2nccc(C(F)(F)F)n2)cc(-c2cnn(Cc3nnc(C)o3)c2)c1` [Example 3.24, N-(3-methyl-5-{1-[(5-methyl-1,3,4-oxadiazol-2-yl)methyl]-1H-pyrazol-4-yl}phenyl)-4-(trifluoromethyl)pyrimidin-2-amine]: the IC50 is at most 100 nM.

As to `Cc1cc(Nc2nccc(C(F)(F)F)n2)cc(-c2cnn(Cc3cc(C)no3)c2)c1` [Example 3.25, N-(3-methyl-5-{1-[(3-methylisoxazol-5-yl)methyl]-1H-pyrazol-4-yl}phenyl)-4-(trifluoromethyl)-pyrimidin-2-amine], the IC50 was at most 100 nM.

Turning to `Cc1cc(Nc2nccc(C(F)(F)F)n2)cc(-c2cnn(CC(=O)N3CCC3)c2)c1` [Example 3.26, N-{3-[1-(2-azetidin-1-yl-2-oxoethyl)-1H-pyrazol-4-yl]-5-methylphenyl}-4-(trifluoromethyl)pyrimidin-2-amine], the IC50 is at most 100 nM.

Regarding `Cc1cc(Nc2nccc(C(F)(F)F)n2)cc(-c2cnn(CC(=O)N3CCCC3)c2)c1` [Example 3.27, N-{3-methyl-5-[1-(2-oxo-2-pyrrolidin-1-ylethyl)-1H-pyrazol-4-yl]phenyl}-4-(trifluoromethyl)pyrimidin-2-amine], the IC50 is at most 100 nM.

`CCC(C(=O)OC)n1cc(-c2cc(C)cc(Nc3nccc(C(F)(F)F)n3)c2)cn1` (stereo not drawn) [Example 3.28, methyl 2-[4-(3-methyl-5-{[4-(trifluoromethyl)pyrimidin-2-yl]amino}-phenyl)-1H-pyrazol-1-yl]butanoate]: the IC50 is at most 100 nM.

In the case of `COC(=O)C(C)n1cc(-c2cc(C)cc(Nc3nccc(C(F)(F)F)n3)c2)cn1` (stereo not drawn) [Example 3.29, methyl 2-[4-[3-methyl-5-{[4-(trifluoromethyl)-pyrimidin-2-yl]amino}-phenyl)-1H-pyrazol-1-yl]propanoate], the IC50 is at most 100 nM.

As for `CCOC(=O)C(C)n1cc(-c2cc(C)cc(Nc3nccc(C(F)(F)F)n3)c2)cn1` (stereo not drawn) [Example 3.30, ethyl 2-[4-(3-methyl-5-{[4-(trifluoromethyl)-pyrimidin-2-yl]amino}phenyl)-1H-pyrazol-1-yl]propanoate], the IC50 is at most 100 nM.

Turning to `Cc1cc(Nc2nccc(C(F)(F)F)n2)cc(-c2cnn(CCCO)c2)c1` [Example 3.31, 3-[4-(3-methyl-5-{[4-(trifluoromethyl)pyrimidin-2-yl]amino}-phenyl)-1H-pyrazol-1-yl]propan-1-ol], the IC50 is at most 100 nM.

For the molecule `Cc1cc(Nc2nccc(C(F)(F)F)n2)cc(-c2cnn(Cc3ccnnc3)c2)c1` [Example 3.32, N-{3-methyl-5-[1-(pyridazin-4-ylmethyl)-1H-pyrazol-4-yl]phenyl}-4-(trifluoromethyl)pyrimidin-2-amine], the IC50 was at most 100 nM.

As to `Cc1cc(Nc2nccc(C(F)(F)F)n2)cc(-c2cnn(CC3CNC(=O)O3)c2)c1` (stereo not drawn) [Example 3.33, 5-{[4-(3-methyl-5-{[4-(trifluoromethyl)pyrimidin-2-yl]amino}-phenyl)-1H-pyrazol-1-yl]methyl}-1,3-oxazolidin-2-one], the IC50 was at most 100 nM.

As to `CCC(C(=O)O)n1cc(-c2cc(C)cc(Nc3nccc(C(F)(F)F)n3)c2)cn1` (stereo not drawn) [Example 3.34, 2-[4-(3-methyl-5-{[4-(trifluoromethyl)pyrimidin-2-yl]amino}-phenyl)-1H-pyrazol-1-yl]butanoic acid], the IC50 is at most 100 nM.

`Cc1cc(Nc2nccc(C(F)(F)F)n2)cc(-c2cnn(C(C)C(=O)O)c2)c1` (stereo not drawn) [Example 3.35, 2-[4-(3-methyl-5-{[4-(trifluoromethyl)pyrimidin-2-yl]amino}-phenyl)-1H-pyrazol-1-yl]propanoic acid]: the IC50 was at most 100 nM.

Consider `Cc1cc(Nc2nccc(C(F)(F)F)n2)cc(-c2cnn(CCO)c2)c1` [Example 3.36, 2-[4-(3-methyl-5-{[4-(trifluoromethyl)-pyrimidin-2-yl]amino}-phenyl)-1H-pyrazol-1-yl]ethanol], for which the IC50 is at most 100 nM.

`Cc1cc(Nc2nccc(C(F)(F)F)n2)cc(-c2cnn(CC(N)=O)c2)c1` [Example 3.37, 2-[4-(3-methyl-5-{[4-(trifluoromethyl)pyrimidin-2-yl]amino}-phenyl)-1H-pyrazol-1-yl]acetamide]: the IC50 was at most 100 nM.

For `Cc1cc(Nc2nccc(OCCO)n2)cc(-c2cnn(CCC(N)=O)c2)c1` [Example 3.38, 3-[4-(3-{[4-(2-hydroxyethoxy)pyrimidin-2-yl]amino}-5-methylphenyl)-1H-pyrazol-1-yl]propanamide], the IC50 is at most 100 nM.

As for `Cc1cc(Nc2nccc(C(F)(F)F)n2)cc(-c2cnn(CS(N)(=O)=O)c2)c1` [Example 3.39, 1-[4-(3-methyl-5-{[4-(trifluoromethyl)pyrimidin-2-yl]amino}-phenyl)-1H-pyrazol-1-yl]methane-sulfonamide], the IC50 was at most 100 nM.

`COc1ccnc(Nc2cc(C)cc(-c3cnn(CCC(N)=O)c3)c2)n1` [Example 3.40, 3-(4-{3-[(4-methoxypyrimidin-2-yl)amino]-5-methylphenyl}-1H-pyrazol-1-yl)propanamide]: the IC50 was at most 100 nM.

Consider `Cc1cc(Nc2nccc(C(F)(F)F)n2)cc(-c2cnn(C[C@@H](O)CO)c2)c1` [Example 3.41, (2R)-3-[4-(3-methyl-5-{[4-(trifluoromethyl)pyrimidin-2-yl]amino}-phenyl)-1H-pyrazol-1-yl]propane-1,2-diol], for which the IC50 was at most 100 nM.

Take `Cc1cc(Nc2nccc(C(F)(F)F)n2)cc(-c2cnn(C[C@H](O)CO)c2)c1` [Example 3.42, (2S)-3-[4-(3-methyl-5-{[4-(trifluoromethyl)pyrimidin-2-yl]amino}phenyl)-1H-pyrazol-1-yl]propane-1,2-diol]: the IC50 is at most 100 nM.

In the case of `Cc1cc(Nc2nccc(C(F)(F)F)n2)cc(-c2cnn(CC3CN(C)C(=O)O3)c2)c1` (stereo not drawn) [Example 3.46], the IC50 was at most 100 nM.

Regarding `Cc1cc(Nc2nccc(C(F)(F)F)n2)cc(-c2cnn(C[C@@H](O)CC#N)c2)c1` [Example 3.47, (3S)-3-hydroxy-4-[4-(3-methyl-5-{[4-(trifluoromethyl)pyrimidin-2-yl]amino}-phenyl)-1H-pyrazol-1-yl]butanenitrile], the IC50 is at most 100 nM.

As to `Cc1cc(Nc2nccc(C(F)(F)F)n2)cc(-c2cnn(CCS(C)(=O)=O)c2)c1` [Example 3.48, N-(3-methyl-5-{1-[2-(methylsulfonyl)ethyl]-1H-pyrazol-4-yl}phenyl)-4-(trifluoromethyl)pyrimidin-2-amine], the IC50 was at most 100 nM.

As to `COC(=O)CCCn1cc(-c2cc(C)cc(Nc3nccc(C(F)(F)F)n3)c2)cn1` [Example 3.49, methyl 4-[4-(3-methyl-5-{[4-(trifluoromethyl)-pyrimidin-2-yl]amino}-phenyl)-1H-pyrazol-1-yl]butanoate], the IC50 is at most 100 nM.

As to `Cc1cc(Nc2nccc(C(F)(F)F)n2)cc(-c2cnn(CCCC(=O)O)c2)c1` [Example 3.50, 4-[4-(3-methyl-5-{[4-(trifluoromethyl)-pyrimidin-2-yl]amino}-phenyl)-1H-pyrazol-1-yl]butanoic acid], the IC50 was at most 100 nM.

Turning to `Cc1cc(Nc2nccc(C(F)(F)F)n2)cc(-c2cnn(C3CCC(C(=O)O)c4ccccc43)c2)c1` (stereo not drawn) [Example 3.51, 4-[4-(3-methyl-5-{[4-(trifluoromethyl)pyrimidin-2-yl]amino}phenyl)-1H-pyrazol-1-yl]-1,2,3,4-tetrahydronaphthalene-1-carboxylic acid], the IC50 was at most 100 nM.

As for `COC(=O)C1CCC(n2cc(-c3cc(C)cc(Nc4nccc(C(F)(F)F)n4)c3)cn2)c2ccccc21` (stereo not drawn) [Example 3.52, methyl 4-[4-(3-methyl-5-{[4-(trifluoromethyl)pyrimidin-2-yl]amino}-phenyl)-1H-pyrazol-1-yl]-1,2,3,4-tetrahydronaphthalene-1-carboxylate], the IC50 is 100 to 1000 nM.

For the molecule `Cc1cc(Nc2nccc(C(F)(F)F)n2)cc(-c2cnn(CC(O)c3ccc(C(=O)O)cc3)c2)c1` (stereo not drawn) [Example 3.53, 4-{1-hydroxy-2-[4-(3-methyl-5-{[4-(trifluoromethyl)pyrimidin-2-yl]amino}-phenyl)-1H-pyrazol-1-yl]ethyl}benzoic acid], the IC50 is at most 100 nM.

In the case of `COC(=O)c1ccc(C(O)Cn2cc(-c3cc(C)cc(Nc4nccc(C(F)(F)F)n4)c3)cn2)cc1` (stereo not drawn) [Example 3.54, methyl 4-{1-hydroxy-2-[4-(3-methyl-5-{[4-(trifluoromethyl)pyrimidin-2-yl]amino}phenyl)-1H-pyrazol-1-yl]ethyl}benzoate], the IC50 was at most 100 nM.

`Cc1cc(Nc2cc(C(F)F)ccn2)nc(-c2cnn(CC3CNC(=O)O3)c2)c1` (stereo not drawn) [Example 3.81, 5-{[4-(6-{[4-(difluoromethyl)pyridin-2-yl]amino}-4-methylpyridin-2-yl)-1H-pyrazol-1-yl]methyl}-1,3-oxazolidin-2-one]: the IC50 is at most 100 nM.

These data come from patent publication US9242984B2, “Pyrazolyl derivatives as Syk inhibitors” (Merck Sharp & Dohme Corp., priority 2012, dated 2016).
